Results published in EP4778929A1, “NOVEL TYPE I TOPOISOMERASE INHIBITOR, AND PREPARATION METHOD THEREFOR AND USE THEREOF” (priority 2023, dated 2025).
Where two headings read alike, the source gives them in different places.

Tests used:
topoisomerase I (Topo I) = target: T1, topoisomerase I (Topo I) (Homo sapiens, UniProt P11387); assay: Topo I enzyme-inhibitory activity by agarose-gel electrophoresis (plasmid relaxation); type: biochemical
T1 sequence (P11387 1-765): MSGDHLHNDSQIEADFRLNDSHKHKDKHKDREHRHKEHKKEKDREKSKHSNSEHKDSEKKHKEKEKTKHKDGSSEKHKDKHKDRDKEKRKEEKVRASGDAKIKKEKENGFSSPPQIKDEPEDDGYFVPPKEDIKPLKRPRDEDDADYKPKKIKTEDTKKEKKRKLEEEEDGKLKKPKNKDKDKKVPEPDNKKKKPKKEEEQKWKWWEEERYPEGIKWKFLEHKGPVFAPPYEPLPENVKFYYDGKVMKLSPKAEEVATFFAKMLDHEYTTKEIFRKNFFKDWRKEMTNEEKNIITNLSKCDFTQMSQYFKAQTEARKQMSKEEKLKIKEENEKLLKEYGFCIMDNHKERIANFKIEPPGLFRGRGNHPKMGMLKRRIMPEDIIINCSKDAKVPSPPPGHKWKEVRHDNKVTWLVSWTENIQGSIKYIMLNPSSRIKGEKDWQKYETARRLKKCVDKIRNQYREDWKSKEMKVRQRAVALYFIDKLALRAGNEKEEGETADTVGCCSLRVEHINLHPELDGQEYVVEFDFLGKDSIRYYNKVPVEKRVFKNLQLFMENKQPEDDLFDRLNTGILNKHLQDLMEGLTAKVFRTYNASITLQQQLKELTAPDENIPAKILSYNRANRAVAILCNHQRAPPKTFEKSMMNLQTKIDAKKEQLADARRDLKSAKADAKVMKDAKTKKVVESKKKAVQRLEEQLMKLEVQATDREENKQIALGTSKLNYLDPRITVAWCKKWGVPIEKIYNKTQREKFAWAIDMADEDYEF
From the text: Test Example 1. Determination of Topo I Enzyme-Inhibitory Activity by Agarose-Gel Electrophoresis
Principle: Type-I topoisomerase (Topo I) relaxes positive and negative supercoils by introducing transient single-strand breaks and forming reversible cleavage complexes (Topo I-DNA covalent complexes). Gel electrophoresis can resolve DNA species of identical molecular weight but different topology: supercoiled plasmid migrates fastest, whereas the nicked, relaxed form moves more slowly. Quantifying the decrease in supercoiled DNA therefore provides a direct measure of Topo I activity.
Experimental Procedure: A 1× reaction buffer was prepared (20 mM Tris-HCl pH 7.5, 200 mM NaCl, 0.25 mM EDTA, 5 % (v/v) glycerol, 0.5 µg pNO1 plasmid substrate). Test compounds (5 % DMSO final) were added to the buffer, followed by Topo I enzyme (0.75 U per reaction). After gentle mixing, reactions were incubated at 37 °C for 30 min. Positive (enzyme + vehicle) and negative (no enzyme) controls were included in parallel. Reactions were terminated by adding STEB buffer and chloroform/iso-amyl alcohol (24:1, v/v), vortexed and centrifuged for 2 min. The aqueous (upper) phase was loaded onto a 1 % (w/v) agarose gel, electrophoresed for 1-2 h, stained with GelRed, and imaged under UV trans-illumination.
Data Analysis: Band intensities of supercoiled DNA were quantified with image-analysis software. Relaxation activity (%) was calculated as (Max-Sample)/ (Max-Min)*100%, where Max = intensity of the no-enzyme negative control, Min = intensity of the vehicle-only positive control, and Sample = intensity of the compound-treated lane. Dose-response data (compound concentration, X; relaxation activity %, Y) were fitted in Excel or GraphPad Prism 5.0 using the four-parameter logistic equation: Y=Bottom + (Top-Bottom)/(1+(IC50/X)[…]) to derive the IC50 value for each compound.
Table 1. Compound-mediated inhibition of topoisomerase I (Topo I) enzymatic activity

HCT116 cells = assay: Inhibition of cell proliferation by CTG (CellTiter-Glo) luminescence assay; type: cell-based; conditions: Homo sapiens, read-out: HCT116, IC50
From the text: Test Example 2. Determination of Compound-Mediated Inhibition of Cell Proliferation by CTG (CellTiter-Glo) Luminescence Assay
Principle: The Promega CellTiter-Glo™ luciferase reagent was used. Luciferase consumes ATP to generate light; metabolically active cells continuously produce ATP through respiration and other processes. After adding an equal volume of CellTiter-Glo™ reagent to the culture medium, the resulting luminescence is directly proportional to the ATP content, which in turn correlates with the number of viable cells. Thus, the assay quantifies compound-induced suppression of cell proliferation.
Experimental Procedure: HCT116 cells (ATCC) were revived in complete medium (McCoy's 5a + 10 % FBS). After two passages, exponentially growing cells were harvested, counted, and resuspended to the appropriate density. A 100 µL aliquot of cell suspension (2 000 cells per well) was seeded into 96-well plates and incubated overnight (37 °C, 5 % CO2, 100 % relative humidity). Test compounds were dissolved in DMSO to prepare 10 mM stock solutions and serially diluted 1:3 in DMSO to generate nine concentration steps. Each DMSO solution was further diluted 200-fold into medium; 25 µL of the resulting solutions were added to the cell plates (final DMSO concentration […]). After 72 h incubation (37 °C, 5 % CO2), 50 µL of CellTiter-Glo reagent was added per well. Plates were shaken gently, incubated for 30 min at room temperature in the dark, and luminescence was read on an EnVision multimode reader. Percent inhibition was calculated as: Inhibition % = (1−As/Ac) × 100, [formula] where As = signal from compound-treated wells and Ac = signal from DMSO-only control wells. Concentration-response data were fitted in Excel with the XLfit add-in using the four-parameter logistic equation: Y = Bottom + (Top−Bottom)/[1+((IC50/X))^(∧)HillSlope], [formula] to derive the IC50 value for each compound. Table 2. IC50 of compounds

[1] = 0.75 U Topo I, pNO1 plasmid, 37 °C, 30 min; compounds listed by group (Group A / Group B); read-out: inhibition of topoisomerase I (Topo I) enzymatic activity, IC50
[2] = HCT-116, 72 h incubation, CellTiter-Glo
[3] = read-out: inhibition of topoisomerase I (Topo I) enzymatic activity, IC50; 0.75 U Topo I, pNO1 plasmid, 37 °C, 30 min; compounds listed by group (Group A / Group B)

Row | SMILES | IC50 (topoisomerase I (Topo I); [1]) [nM] | IC50 (HCT116 cells; [2]) [nM] | IC50 (topoisomerase I (Topo I); [3]) [nM] | IC50 (HCT116 cells; HCT-116, 72 h) [nM]
1 | CC[C@@]1(O)C(=O)OCc2c1cc1n(c2=O)Cc2c-1c(=O)c1ccccc1n2C [Example 1, (S)-4-ethyl-4-hydroxy-11-methyl-1,12-dihydro-14H-pyrano[3,4:6,7]indolizino[2,1 - b]quinoline-3,6,14(4H,11H)-trione] | < 200 | < 20 | – | –
2 | CC[C@@]1(O)C(=O)OCc2c1cc1n(c2=O)Cc2c-1c(=O)c1cc(F)c(F)cc1n2C [Example 5, (S)-4-ethyl-8,9-difluoro-4-hydroxy-11-methyl-1,12-dihydro-14H-pyrano[3',4':6,7]indolizino[2,1-b]quinoline-3,6,14(4H,11H)-trione] | < 200 | < 20 | – | –
3 | CC[C@@]1(O)C(=O)OCc2c1cc1n(c2=O)Cc2c-1c(=O)c1cc(F)ccc1n2C [Example 6, (S)-4-ethyl-8-fluoro-4-hydroxy-11-methyl-1,12-dihydro-14H-pyrano[3',4':6,7]indazino[2,1-b]quinoline-3,6,14(4H,11H)-trione] | < 200 | < 20 | – | –
4 | CC[C@@]1(O)C(=O)OCc2c1cc1n(c2=O)Cc2c-1c(=O)c1cc(F)cc(OC)c1n2C [Example 10, (S)-4-ethyl-8-fluoro-4-hydroxy-10-methoxy-11-methyl-1,12-dihydro-14H-pyrano[3,4:6,7]indolizino[2,1-b]quinoline-3,6,14 (4H,11H)-trione] | – | – | < 200 | < 20
5 | CC[C@@]1(O)C(=O)OCc2c1cc1n(c2=O)Cc2c-1c(=O)c1cc(F)cnc1n2C [Example 19, (S)-7-ethyl-3-fluoro-7-hydroxy-14-methyl-10,14-dihydro-11H-pyrano[3',4':6,7]indolizino[2,1-b][1,8]diazepine-5,8,11(7H,13H)-trione] | – | – | 200 to 500 | < 20
6 | CCOCCc1cc(F)cc2c(=O)c3c(n(C)c12)Cn1c-3cc2c(c1=O)COC(=O)[C@]2(O)CC [Example 23, (S)-10-(2-ethoxyethyl)-4-ethyl-8-fluoro-4-hydroxy-11-methyl-1,12-dihydro-14H-pyrano[3,4:6,7]indolizino[2,1-b]quinoline-3,6,14 (4H,11H)-trione] | – | – | 200 to 500 | < 20
7 | CC[C@@]1(O)C(=O)OCc2c1cc1n(c2=O)Cc2c-1c(=O)c1cc(F)cc(F)c1n2C [Example 24, (S)-4-ethyl-8,10-difluoro-4-hydroxy-11-methyl-1,12-dihydro-14H-pyrano[3,4:6,7]indolizino[2,1-b]quinoline-3,6,14(4H,11H)-trione] | – | – | < 200 | < 20
8 | CC[C@@]1(O)C(=O)OCc2c1cc1n(c2=O)Cc2c-1c(=O)c1cc(F)ccc1n2C(C)C [Example 36, (S)-4-ethyl-8-fluoro-4-hydroxy-11-isopropyl-1,12-dihydro-14H-pyrano[3',4':6,7]indolizino[2,1-b]quinoline-3,6,14(4H,11H)-trione] | – | – | < 200 | < 20
9 | CC[C@@]1(O)C(=O)OCc2c1cc1n(c2=O)Cc2c-1c(=O)c1cc(F)ccc1n2C1CC1 [Example 37, (S)-4-ethyl-8-fluoro-4-hydroxy-11-cyclopropyl-1,12-dihydro-14H-pyrano[3',4':6,7]indolizino[2,1-b]quinoline-3,6,14(4H,11H)-trione] | – | – | < 200 | < 20
10 | CC[C@@]1(O)C(=O)OCc2c1cc1n(c2=S)Cc2c-1c(=O)c1cc(F)cc(C)c1n2C [Example 39, (S)-4-ethyl-8-fluoro-4-hydroxy-10,11-dimethyl-14-thioxo-12,14-dihydro-1H-pyrano[3',4':6,7]indolizino[2,1-b]quinoline-3,6(4H, 11H)-dione] | < 200 | < 20 | – | –
11 | CC[C@@]1(O)C(=O)OCc2c1cc1n(c2=O)Cc2c-1c(=O)c1cc(F)ccc1n2-c1cnn(C)c1 [Example 57, (S)-4-ethyl-8-fluoro-4-hydroxy-11-(1-methyl-1H-pyrazol-4-yl)-1H-pyrano[3',4':6,7]indolizino[2,1-b]quinoline-3,6,14(4H,11H,12H) -trione] | 200 to 500 | < 20 | – | –
12 | CC[C@@]1(O)C(=O)OCc2c1cc1n(c2=O)Cc2c-1c(=O)c1cc(F)ccc1n2-c1cccnc1 [Example 60, (S)-4-ethyl-8-fluoro-4-hydroxy-11-(pyridin-3-yl)-1H-pyrano[3',4':6,7]indolizino[2,1-b]quinoline-3,6,14(4H,11H,12H)-trione] | 200 to 500 | < 20 | – | –
13 | CC[C@@]1(O)C(=O)OCc2c1cc1n(c2=O)Cc2c-1c(=O)c1cc(F)ccc1n2-c1cn(C2CC2)nc1C(C)O (stereo partly drawn) [Example 63, (4S)-11-(1-cyclopropyl-3-(1-hydroxyethyl)-1H-pyrazol-4-yl)-4-ethyl-8-fluoro-4-hydroxy-1,12-dihydro-14H-pyrano[3,4:6,7] indolizino[2,1-b]quinoline-3,6,14(4H,11H)-trione] | – | – | 200 to 500 | < 20
14 | CC[C@@]1(O)C(=O)OCc2c1cc1n(c2=O)Cc2c-1c(=O)c1cc3c(cc1n2-c1ccc(N)cc1)OCO3 [Example 67, (S)-5-(4-aminophenyl)-12-ethyl-12-hydroxy-9,12-dihydro-8H-[1,3]dioxolo[4,5-g]pyrano[3,4:6,7]indolizino[2,1-b]quinoline-8,11,14 (SH,6H)-trione] | – | – | 200 to 500 | < 20
15 | CC[C@@]1(O)C(=O)OCc2c1cc1n(c2=O)Cc2c-1c(=O)c1cc(F)c(C)cc1n2-c1ccc(N)cc1 [Example 68, (S)-11-(4-aminophenyl)-4-ethyl-8-fluoro-4-hydroxy-9-methyl-1,12-dihydro-14H-pyrano[3,4:6,7]indolizino[2,1-b]quinoline-3,6,14 (4H,11H)-trione] | – | – | 200 to 500 | < 20
16 | CC[C@@]1(O)C(=O)OCc2c1cc1n(c2=O)Cc2c-1c(=O)c1cc(F)c(N)cc1n2C1CCCC1 [Example 69, (S)-9-amino-4-ethyl-8-fluoro-4-hydroxy-11-cyclopentyl-1,12-dihydro-14H-pyrano[3,4:6,7]indolizino[2,1-b]quinoline-3,6,14(4H,11H)-trione] | < 200 | < 20 | – | –
